Results reported in US20190284192A1, “NITROGENOUS MACROCYCLIC COMPOUND, PREPARATION METHOD THEREFOR, PHARMACEUTICAL COMPOSITION AND APPLICATION THEREOF” (LUOXIN PHARMACEUTICAL (SHANGHAI) CO., LTD., priority 2016, published 2019).
pIC50: −log10 of the molar value.

Legend:
[1] = Body weight of MV-4-11 tumor-bearing mice during treatment; type: in vivo; conditions: intragastric QD*14, ABBV-075 3, GSK762 15, 4009 10 mg/kg
Description: The preparation and any revision of this experimental protocol are carried out in accordance with the evaluation criteria of the “Institute for Animal Care and Use (IACUC)” of Shanghai Chempartner Chemical Research Co., Ltd. The use and welfare of laboratory animals are carried out in accordance with the provisions of the Association for Assessment and Accreditation of Laboratory Animal Care (AAALAC). Animals are monitored daily for health and death. Routine examinations include observations of the effects of the test substance and the drug on the daily behavior of the animal such as behavioral activities, intake of water and feeds, weight change (three weights measured weekly), appearance signs or other anormal circumstance. The number of animal deaths and side effects in the group were recorded based on the number of animals in each group.

[2] = test system: MV-4-11 subcutaneous xenograft tumor; experiment: Anti-tumor efficacy in vivo, MV-4-11 subcutaneous xenograft model; parameters: species or system BALB/c nude mice; conditions: intragastric QD*14
Description: According to the growth of the cells, the treatment was passaged twice a week. When the cells are in the exponential growth phase, the cells are collected, counted, and inoculated.
Experimental protocol: 0.2 mL of cell suspension containing about 5×10^MV-4-11 cells (cell suspended in IMDM medium and added with 50% Matrigel) was inoculated subcutaneously into the right back of each mouse. Group administration was initiated when the average tumor volume reached approximately 136.94 mm^3 (day 15 post inoculation). Grouping method: Animals were weighed before dosing and tumor volume was measured. Grouping designed based on tumor volume.
The experimental indicator is to investigate whether tumor growth can be inhibited, delayed or cured. Tumor diameters were measured with vernier calipers three times a week. The formula for calculating tumor volume is: V=0.5×a×b^2, a and b represent the long and short diameters of the tumor, respectively. The antitumor effect of the compound was evaluated by T/C (%). T/C %=TRTV/CRTV×100% (TRTV: treatment group RTV; CRTV: negative comparative group RTV). The relative tumor volume RTV is calculated as RTV=Vt/V1. Where V1 is the measured tumor volume at the time of group administration (i.e., Day 1), and Vt is the tumor volume at each measurement.
The tumor volume and tumor size were analysed by statistical software. GraphPad Prism software was used for analyzation, p<0.05 is considered to have significant difference, p<0.01 is considered to have extremely significant difference.
Two-way Anova Bonferroni post-test is used to compare the tumor volume difference between the control group and the treatment group.

MV-4-11 cells = experiment: Inhibitory effect on MV-4-11 cells (CellTiter-Glo); type: cell-based; conditions: Homo sapiens, MV4-11; 72 hours, CellTiter-Glo; read-out: MV-4-11
BRD4 (BD1) = target: T1, BRD4 (BD1) (Homo sapiens, UniProt O60885); experiment: BRD4 (BD1) bromodomain binding, HTRF; conditions: 2 h incubation at r.t.
T1 construct: Each member comprises two tandem bromodomains (BD1 and BD2) for recognizing the acetylated lysine residues

BRD4 (BD2) = target: T2, BRD4 (BD2) (Homo sapiens, UniProt O60885); experiment: BRD4 (BD2) bromodomain binding, HTRF; conditions: 2 h incubation at r.t.
T2 construct: Each member comprises two tandem bromodomains (BD1 and BD2) for recognizing the acetylated lysine residues

SU-DHL-6 cells = experiment: Inhibitory effect on SU-DHL-6 cells (CellTiter-Glo); type: cell-based; conditions: Homo sapiens; 72 hours, CellTiter-Glo; read-out: SU-DHL-6
Description: Determinations of the inhibition of the compounds from the above embodiments against SU-DHL-6 cells, the detailed operation steps are as followed:
The 1st Day: Seed the Cells on the Plate
1. The cells were verified that they were in good conditions by observation under microscope;
2. The cells were transferred to a centrifuge tubes, after centrifuged at 1000 rpm for 5 min, the supernatant was discarded;
3. The complete substrate (1640+10% FBS) was added, then blown and patted into single cell suspension, counted by Vi-cell cytometer, the cell suspension was adjusted to desired cell density by the complete medium.
4. The cells were inoculated into a 96 well plate, the cell number was 12000/well at 100 μL per well, 100 μL complete medium was added into the black control;
5. 37° C., 5% CO2 culture overnight.
The 2nd Day: Addition of the Drugs
1. 1000× Compound Plate Preparation
1.1. The test compound was prepared into 10 mM working solution by using DMSO. Then the STS was prepared into 2 mM working solution by using DMSO.
1.2. In the round bottom 96 wells plate, the column 2 of row A to H was added into 60 μL 10 mM test compound (or STS) working solution, columns 3-11 were added into 40 μL DMSO, 20 μL drug solution was pipetted from the column 2 to the column 3, blown and patted for a homogeneous mixture; then 20 μL solution was pipetted from the column 3 to the column 4, blown and patted for a homogeneous mixture, sequently, the drug was diluted by 3 times, 10 concentrations in total. The columns 1 and 12 were supplemented with 40 μL of DMSO.
2. Intermediate plate preparation
A sterile V-bottom 96 deep well plate was used and in each well, 495 μL FBS-free PRMI 1640 medium was added, then 5 μL of the diluted compound (or DMSO) in the 1000× compound plate was pipetted into corresponding position of the V-bottom 96 well plate, blown and patted evenly.
3.1. The cell plate was taken out from the incubator and was observed under microscope. The diluted compound or DMSO in the intermediate plate was added into the cell plate, 11 μL each well.
3.2. The cell was continued to be cultured at 37° C., 5% CO2 for 72 hours.
The 5th Day: CellTiter-Glo Detection of the Cell Activity
1. The CellTiter-Glo buffer and the reaction substrate were taken out from the refrigerator, after balanced to r.t., the buffer was poured into a brown bottle containing the substrate, the bottle was upside down to have the substrate powder sufficientaly dissolved.
2. The cell was observed under microscope; the cell plate was balanced to r.t.
3. The prepared CellTiter-Glo was added into the 96 well plate, at 100 μL/well.
4. The cell plate was placed on a shaker for 10 min, followed by standing at r.t. for 10 min.
5. A white seal film was attached to the bottom of the well plate, and the chemiluminescence signal of each well was detected by the Enspire microplate detector.
6. XLfit was used for data processing. Inhibition rate %=(d-c)/(d-b)×100, while d is the signal value of the DMSO treated group, c is the signal value of the compound treated group, b is signal value of the blank control that only containing medium and DMSO without cells. The data was fitted using the f (x)205[fit=(A+((B−A)/(1+((C/x)^∧D))))] equation in the XLfit software.

[3] = Metabolic stability in human liver microsomes; type: in vitro ADME; conditions: human liver microsomes 0.5 mg/mL, NADPH, 37° C.
Description: (§1) Determinations of the metabolic stability of the compound from the above embodiments, the detailed operation steps are as followed:
(§2) 1. Preparation of buffer C:
(§3) Buffer A: 1.0 L of 0.1 M potassium dihydrogen phosphate buffer (containing 1.0 mM EDTA);
(§4) Buffer B: 1.0 L of 0.1 M dipotassium hydrogen phosphate buffer (containing 1.0 mM EDTA);
(§5) Buffer C: 500 mL Buffer B was titrated with Buffer A to pH 7.4.
(§6) 2. 10 mM stock solution preparation:
(§7) 10 mM test compound: A certain amount of the test compound was weighed and dissolved in DMSO.
(§8) 10 mM control: 5.455 mg of ketanserin dissolved in 1 mL DMSO.
(§9) 3. Preparation of the drug solution:
(§10) 500 μM solution: 5 μL of 10 mM stock solution (see step 2) was added into 95 μL ACN;
(§11) 1.5 μM dosing solution (dissolved in liver microsome solution):
(§12) 18.75 μL of 20 mg/mL liver microsomes was added into 479.75 μL of Buffer C, then 1.5 μL of 500 μM solution was added and mixed gently by shaking.
(§13) 4. Preparation of 6 mM NADPH solution:
(§14) 15 mg NADPH was weighted, then added into 3 mL of buffer C to prepare a 6 mM NADPH solution.
(§15) 5. 30 µL of 1.5 μM dosing solution (see step 3) was added into the wells of the 96-well plate set at different time points (0 minutes, 5 minutes, 15 minutes, 30 minutes, 45 minutes), number of dulplicate sample is 2.
(§16) 6. Preparation of a 0 minutes sample: 135 μL ACN (with internal standard) was added to the 0 minutes well, followed by 15 µL of 6 mM NADPH solution.
(§17) 7. The 96-well plate containing 1.5 μM dosing solution and NADPH solution were preheated in a 37° C. water bath for 5 minutes.
(§18) 8. The 15 µL of 6 mM NADPH solution preheated was added into the wells set to 5 minutes, 15 minutes, 30 minutes, 45 minutes, then the reaction was initiated and started counting the time.
(§19) 10. The sample was vortexed for 10 min, and then centrifuged for 15 minutes on a centrifuge (Thermo Multifuge×3R) using 5594×g.
(§20) 11. 50 μL of the supernatant was taken from the centrifuged sample, transferred to a 96-well sample plate to which 100 μL of ultrapure water had already been added, mixed, and finally sent to LC-MS/MS for analysis.
(§21) Half time (T1/2)=0.693/K (K is the rate constant obtained by linear regression of the logarithm of the concentration as vertical coordinates and the culturing time as the abscissa)
(§22) 2. According to the equation formula bellow, Excel was used to plot the compound content versus reaction time, as well as half life calculation (min)
(§23) Y=(Y0−Plateau)×e^(−K*X)+Plateau
(§24) Y0 represents the compound content at 0 minutes; Y represents the compound content; X represents the time point; K represents degration rate constant of the compound; Plateau represents the lowest possible content of the compound (defined herein as 0).

[4] = Metabolic stability in mouse liver microsomes; type: in vitro ADME; conditions: mouse liver microsomes 0.5 mg/mL, NADPH, 37° C.
Description: as §1, §2, §3, §4, §5, §6, §7, §8, §9, §10, §11, §12, §13, §14, §15, §16, §17, §18, §19, §20, §21, §22, §23, §24

Row | pIC50 (MV-4-11 cells) | pIC50 (BRD4 (BD1)) | pIC50 (BRD4 (BD2)) | pIC50 (SU-DHL-6 cells) | HLM_T1/2 [3] | MLM_T1/2 [4] [min] | CLint scaled at 1 µM ([4]; pH 7.4, read-out: MLM_CLint) [mL/min/kg] | SMILES | Average RCBW, Treatment end Day 15 ([1]; relative body weight change vs Day 1) [%] | Average body weight, Treatment end Day 15 ([1]; x ± SEM) [g] | Average body weight, Treatment start Day 1 ([1]; x ± SEM) [g] | anti-tumor effect on the MV-4-11 cell xenograft tumor mouse model ([2]; ABBV-075 3 mg/kg, GSK762 15 mg/kg, 4009 10 mg/kg) | Average tumor weight, 15th day of treatement ([2]; ABBV-075 3, GSK762 15, 4009 10 mg/kg) [g]
1 |  |  |  |  |  |  |  | CCNC(=O)C[C@@H]1N=C(c2ccc(Cl)cc2)c2cc(OC)ccc2-n2c(C)nnc21 [GSK762] | 5.07 | 21.86 ± 0.38 | 20.82 ± 0.40 | no significant anti-tumor effect | 0.522 ± 0.11
2 | 5.84 | 6.91 | 7.60 | 5.70 |  |  |  | Cn1cc2c(c1C(N)=O)CC(=O)N(c1ccc(F)cc1)c1ccc(CS(C)(=O)=O)cc1-2 [Compound 4001, 6-(4-fluorophenyl)-2-methyl-9-(methylsulfonemethyl)-5-oxo-2,4,5,6-tetrahydrobenzo[b]pyrrolo[3,4-d]azepin-3-carboxamide] |  |  |  |  | 
3 | 6.93 | 8.22 | 8.15 | 6.60 | ∞ | 815.54 | 6.69 | Cn1cc2c(cc1=O)CN=C(c1ccc(F)cc1)c1ccc(CS(C)(=O)=O)cc1-2 [Compound 4007, 7-(4-Fluorophenyl)-2-methyl-10-(methylsulfonemethyl)-2H-benzo[c]pyrido[3,4-e]azepin-3(5H)-ketone] |  |  |  |  | 
